Reference: patent US20230017045A1, “PYRIDINE AND PYRIMIDINE CARBOXYLATE HERBICIDES AND METHODS OF USE THEREOF” (Dow AgroSciences LLC, priority 2017, published 2023)
Like-named read-outs stand apart in the source and are kept apart here.

Tested on: test plant species
Test: Post-emergent herbicidal activity test (greenhouse, foliar spray, visual growth reduction)
Assay type: in vivo
Settings: post-emergence, 336 h, 140 g ai/ha
Procedure, shortened: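 Seedlings were raised 7-21 d in a greenhouse under a 15 h photoperiod until the first or second true leaf. Each compound, dissolved in acetone:DMSO 97:3 and diluted into a surfactant-containing spray mixture, was then applied at 187 L/ha. Plants were subirrigated, and growth reduction was scored visually at 14 d.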

[1] = ALOMY: blackgrass (Alopecurus myosuroides), 14 days after application, read-out: Visual Growth Reduction (%) 14 Days After Application, ALOMY
[2] = AMARE: redroot pigweed (Amaranthus retroflexus), 14 days after application, read-out: Visual Growth Reduction (%) 14 Days After Application, AMARE
[3] = AVEFA: wild oat (Avena fatua), 14 days after application, read-out: Visual Growth Reduction (%) 14 Days After Application, AVEFA
[4] = CHEAL: lambsquarters (Chenopodium album), 14 days after application, read-out: Visual Growth Reduction (%) 14 Days After Application, CHEAL
[5] = CIRAR: canada thistle (Cirsium arvense), 14 days after application, read-out: Visual Growth Reduction (%) 14 Days After Application, CIRAR
[6] = CYPES: yellow nutsedge (Cyperus esculentus), 14 days after application, read-out: Visual Growth Reduction (%) 14 Days After Application, CYPES
[7] = DIGSA: crabgrass (Digitaria sanguinalis), 14 days after application, read-out: Visual Growth Reduction (%) 14 Days After Application, DIGSA
[8] = ECHCG: barnyardgrass (Echinochloa crus-galli), 14 days after application, read-out: Visual Growth Reduction (%) 14 Days After Application, ECHCG
[9] = IPOHE: ivy-leaf morning glory (Ipomoea hederacea), 14 days after application, read-out: Visual Growth Reduction (%) 14 Days After Application, IPOHE
[10] = KCHSC: kochia (Bassia scoparia), 14 days after application, read-out: Visual Growth Reduction (%) 14 Days After Application, KCHSC
[11] = ORYSA: rice (Oryza sativa), 14 days after application, read-out: Visual Growth Reduction (%) 14 Days After Application, ORYSA
[12] = SETFA: giant foxtail (Setaria faberi), 14 days after application, read-out: Visual Growth Reduction (%) 14 Days After Application, SETFA
[13] = SORVU: grain sorghum (Sorghum vulgare), 14 days after application, read-out: Visual Growth Reduction (%) 14 Days After Application, SORVU
[14] = STEME: common chickweed (Stellaria media), 14 days after application, read-out: Visual Growth Reduction (%) 14 Days After Application, STEME
[15] = TRZAS: wheat, spring (Triticum aestivum), 14 days after application, read-out: Visual Growth Reduction (%) 14 Days After Application, TRZAS
[16] = blackgrass (Alopecurus myosuroides), 14 Days After Application, read-out: Visual Growth Reduction (%) ALOMY
[17] = canada thistle (Cirsium arvense), 14 Days After Application, read-out: Visual Growth Reduction (%) CIRAR
[18] = crabgrass (Digitaria sanguinalis), 14 Days After Application, read-out: Visual Growth Reduction (%) DIGSA
[19] = lambsquarters (Chenopodium album), 14 Days After Application, read-out: Visual Growth Reduction (%) CHEAL
[20] = redroot pigweed (Amaranthus retroflexus), 14 Days After Application, read-out: Visual Growth Reduction (%) AMARE
[21] = wild oat (Avena fatua), 14 Days After Application, read-out: Visual Growth Reduction (%) AVEFA
[22] = yellow nutsedge (Cyperus esculentus), 14 Days After Application, read-out: Visual Growth Reduction (%) CYPES

Compound	pest or weed control at 140 g/ha [1]	pest or weed control at 140 g/ha [2]	pest or weed control at 140 g/ha [3]	pest or weed control at 140 g/ha [4]	pest or weed control at 140 g/ha [5]	pest or weed control at 140 g/ha [8]	pest or weed control at 140 g/ha [9]	pest or weed control at 140 g/ha [10]	pest or weed control at 140 g/ha [11]	pest or weed control at 140 g/ha [12]	pest or weed control at 140 g/ha [13]	pest or weed control at 140 g/ha [14]	pest or weed control at 140 g/ha [15]	pest or weed control at 140 g/ha [16]	pest or weed control at 140 g/ha [17]	pest or weed control at 140 g/ha [18]	pest or weed control at 140 g/ha [19]	pest or weed control at 140 g/ha [20]	pest or weed control at 140 g/ha [21]	pest or weed control at 140 g/ha [22]	also measured
COC(=O)c1nc(-c2cc3c(cc2Cl)OCO3)c(F)cc1Cl [F150, Methyl 3-chloro-6-(6-chlorobenzo[d] [1,3]oxol-5-yl)-5-fluoropicolinate]	0 to 29%	75 to 84%	0 to 29%	75 to 84%	85 to 94%	0 to 29%	85 to 94%	45 to 59%	0 to 29%	30 to 44%	0 to 29%	0 to 29%	0 to 29%	–	–	–	–	–	–	–	pest or weed control at 140 g/ha [6]: 0 to 29%; pest or weed control at 140 g/ha [7]: 0 to 29%
C=Cc1cc(C(F)(F)F)cc(Cl)c1-c1ccc(Cl)c(C(=O)O)n1 [F222, 3-Chloro-6-(2-chloro-4-(trifluoromethyl)-6-vinylphenyl) picolinic acid]	–	–	–	–	–	60 to 74%	95 to 100%	45 to 59%	0 to 29%	30 to 44%	75 to 84%	0 to 29%	45 to 59%	0 to 29%	85 to 94%	75 to 84%	75 to 84%	75 to 84%	0 to 29%	0 to 29%	–
COC(=O)c1nc(-c2ccc(C(F)(F)F)nc2Cl)ccc1Cl [F8, Methyl 2′,5-dichloro-6′-(trifluoromethyl)-[2,3′-bipyridine]-6-carboxylate]	0 to 29%	95 to 100%	0 to 29%	95 to 100%	85 to 94%	–	–	–	–	–	–	–	–	–	–	–	–	–	–	–	pest or weed control at 140 g/ha [6]: 45 to 59%; pest or weed control at 140 g/ha [7]: 60 to 74%; pest or weed control at 140 g/ha (barnyardgrass (Echinochloa crus-galli), 14 Days After Application, read-out: Visual Growth Reduction (%) ECHCG): 30 to 44%; pest or weed control at 140 g/ha (common chickweed (Stellaria media), 14 Days After Application, read-out: Visual Growth Reduction (%) STEME): 0 to 29%; pest or weed control at 140 g/ha (giant foxtail (Setaria faberi), 14 Days After Application, read-out: Visual Growth Reduction (%) SETFA): 0 to 29%; pest or weed control at 140 g/ha (ivy-leaf morning glory (Ipomoea hederacea), 14 Days After Application, read-out: Visual Growth Reduction (%) IPOHE): 95 to 100%; pest or weed control at 140 g/ha (johnsongrass (Sorghum vulgare), 14 Days After Application, read-out: Visual Growth Reduction (%) SORVU): 85 to 94%; pest or weed control at 140 g/ha (kochia (Bassia scoparia), 14 Days After Application, read-out: Visual Growth Reduction (%) KCHSC): 85 to 94%; pest or weed control at 140 g/ha (rice (Oryza sativa), 14 Days After Application, read-out: Visual Growth Reduction (%) ORYSA): 0 to 29%; pest or weed control at 140 g/ha (wheat, spring (Triticum aestivum), 14 Days After Application, read-out: Visual Growth Reduction (%) TRZAS): 30 to 44%
COC(=O)c1nc(-c2ccc(C(F)(F)F)cc2C)c(F)cc1F [F376, Methyl 3,5-difluoro-6-(2-methyl-4-(trifluoromethyl)phenyl)picolinate]	–	–	–	–	–	0 to 29%	95 to 100%	45 to 59%	0 to 29%	60 to 74%	85 to 94%	0 to 29%	0 to 29%	0 to 29%	60 to 74%	60 to 74%	85 to 94%	95 to 100%	0 to 29%	0 to 29%	–
COC(=O)c1nc(-c2cc(F)c(C(F)(F)F)cc2Cl)ccc1Cl [F243, Methyl 3-chloro-6-(2-chloro-5-fluoro-4-(trifluoromethyl)phenyl)picolinate]	–	–	–	–	–	95 to 100%	95 to 100%	75 to 84%	0 to 29%	95 to 100%	95 to 100%	0 to 29%	85 to 94%	85 to 94%	95 to 100%	95 to 100%	95 to 100%	95 to 100%	75 to 84%	85 to 94%	–
COC(=O)c1nc(-c2ccc3cc[nH]c3c2)c(F)cc1Cl [F320, Methyl 3-chloro-5-fluoro-6-(1H-indol-6-yl)picolinate]	–	–	–	–	–	0 to 29%	60 to 74%	0 to 29%	0 to 29%	0 to 29%	0 to 29%	0 to 29%	0 to 29%	0 to 29%	30 to 44%	0 to 29%	60 to 74%	0 to 29%	0 to 29%	0 to 29%	–
COC(=O)c1nc(-c2ccc(C(F)(F)F)cc2Cl)c(F)cc1F [F373, Methyl 6-(2-chloro-4-(trifluoromethyl)phenyl)-3,5-difluoropicolinate]	–	–	–	–	–	75 to 84%	95 to 100%	75 to 84%	0 to 29%	75 to 84%	95 to 100%	30 to 44%	30 to 44%	0 to 29%	95 to 100%	95 to 100%	95 to 100%	95 to 100%	45 to 59%	0 to 29%	–
O=C(O)c1nc(-c2ccc(C(F)(F)F)cc2Cl)ccc1Cl [F61, 3-chloro-6-(2-chloro-4-(trifluoromethyl)phenyl)picolinic acid]	60 to 74%	95 to 100%	60 to 74%	95 to 100%	85 to 94%	85 to 94%	95 to 100%	85 to 94%	45 to 59%	85 to 94%	85 to 94%	0 to 29%	85 to 94%	–	–	–	–	–	–	–	pest or weed control at 140 g/ha [6]: 0 to 29%; pest or weed control at 140 g/ha [7]: 95 to 100%
COC(=O)c1nc(-c2ccc(OC(F)F)cc2Cl)c(F)cc1Cl [F200, Methyl 3-chloro-6-(2-chloro-4-(difluoromethoxy)phenyl)-5-fluoropicolinate]	–	–	–	–	–	75 to 84%	95 to 100%	95 to 100%	0 to 29%	85 to 94%	95 to 100%	30 to 44%	75 to 84%	45 to 59%	95 to 100%	95 to 100%	95 to 100%	95 to 100%	60 to 74%	0 to 29%	–
